Test results as given in article PMC6407913, “DREADD Agonist 21 Is an Effective Agonist for Muscarinic-Based DREADDs in Vitro and in Vivo” (ACS Pharmacology & Translational Science, 2018).
Values joined by “and” are separate entries in the source; they are usually repeats but may differ in a detail not shown here. Equal values may be shown once.

Columns and labels:
Format in all cases: cell-based
[1] = biological target: T1, 318 nonolfactory human GPCRs (Homo sapiens, UniProt P08912); details: CHRM5; C21 5 µM
T1 construct: expressed in transfected cells; host or cells: HTLA cells, transient

[2] = biological target: 318 nonolfactory human GPCRs (Homo sapiens, UniProt P21918); details: DRD5; C21 5 µM
[3] = biological target: 318 nonolfactory human GPCRs (Homo sapiens, UniProt P28566); details: HTR1E; C21 5 µM
[4] = biological target: T2, 318 nonolfactory human GPCRs (Homo sapiens, UniProt P29371); details: TACR3; C21 5 µM
T2 construct: expressed in transfected cells; host or cells: HTLA cells, transient

[5] = biological target: T3, 318 nonolfactory human GPCRs (Homo sapiens, UniProt P30518); details: AVPR2; C21 5 µM
T3 construct: expressed in transfected cells; host or cells: HTLA cells, transient

[6] = biological target: T4, 318 nonolfactory human GPCRs (Homo sapiens, UniProt P30559); details: OXTR; C21 5 µM
T4 construct: expressed in transfected cells; host or cells: HTLA cells, transient

[7] = biological target: 318 nonolfactory human GPCRs (Homo sapiens, UniProt P30872); details: SSTR1; C21 5 µM
[8] = biological target: 318 nonolfactory human GPCRs (Homo sapiens, UniProt P32238); details: CCKAR; C21 5 µM
[9] = biological target: T5, 318 nonolfactory human GPCRs (Homo sapiens, UniProt P32241); details: VIPR1; C21 5 µM
T5 construct: expressed in transfected cells; host or cells: HTLA cells, transient

[10] = biological target: T6, 318 nonolfactory human GPCRs (Homo sapiens, UniProt P34995); details: PTGER1; C21 5 µM
T6 construct: expressed in transfected cells; host or cells: HTLA cells, transient

[11] = biological target: 318 nonolfactory human GPCRs (Homo sapiens, UniProt P35462); details: DRD3; C21 5 µM
[12] = biological target: T7, 318 nonolfactory human GPCRs (Homo sapiens, UniProt P43115); details: PTGER3; C21 5 µM
T7 construct: expressed in transfected cells; host or cells: HTLA cells, transient

[13] = biological target: T8, 318 nonolfactory human GPCRs (Homo sapiens, UniProt P46663); details: BDKBR1; C21 5 µM
T8 construct: expressed in transfected cells; host or cells: HTLA cells, transient

[14] = biological target: 318 nonolfactory human GPCRs (Homo sapiens, UniProt P47872); details: SCTR; C21 5 µM
[15] = biological target: T9, 318 nonolfactory human GPCRs (Homo sapiens, UniProt P49238); details: CX3CR1; C21 5 µM
T9 construct: expressed in transfected cells; host or cells: HTLA cells, transient

[16] = biological target: T10, 318 nonolfactory human GPCRs (Homo sapiens, UniProt Q13324); details: CRHR2; C21 5 µM
T10 construct: expressed in transfected cells; host or cells: HTLA cells, transient

[17] = biological target: T11, 318 nonolfactory human GPCRs (Homo sapiens, UniProt Q14330); details: GPR18; C21 5 µM
T11 construct: expressed in transfected cells; host or cells: HTLA cells, transient

[18] = biological target: T12, 318 nonolfactory human GPCRs (Homo sapiens, UniProt Q14439); details: GPR176; C21 5 µM
T12 construct: expressed in transfected cells; host or cells: HTLA cells, transient

[19] = biological target: T13, 318 nonolfactory human GPCRs (Homo sapiens, UniProt Q15077); details: P2RY6; C21 5 µM
T13 construct: expressed in transfected cells; host or cells: HTLA cells, transient

[20] = biological target: T14, 318 nonolfactory human GPCRs (Homo sapiens, UniProt Q86SQ4); details: GPR126; C21 5 µM
T14 construct: expressed in transfected cells; host or cells: HTLA cells, transient

[21] = biological target: T15, 318 nonolfactory human GPCRs (Homo sapiens, UniProt Q8IWK6); details: GPR125; C21 5 µM
T15 construct: expressed in transfected cells; host or cells: HTLA cells, transient

[22] = biological target: 318 nonolfactory human GPCRs (Homo sapiens, UniProt Q8IYL9); details: GPR65; C21 5 µM
[23] = biological target: T16, 318 nonolfactory human GPCRs (Homo sapiens, UniProt Q8NFJ6); details: PK2; C21 5 µM
T16 construct: expressed in transfected cells; host or cells: HTLA cells, transient

[24] = biological target: T17, 318 nonolfactory human GPCRs (Homo sapiens, UniProt Q8TDS7); details: MRGPRD; C21 5 µM
T17 construct: expressed in transfected cells; host or cells: HTLA cells, transient

[25] = biological target: T18, 318 nonolfactory human GPCRs (Homo sapiens, UniProt Q8TDV0); details: GPR151; C21 5 µM
T18 construct: expressed in transfected cells; host or cells: HTLA cells, transient

[26] = biological target: T19, 318 nonolfactory human GPCRs (Homo sapiens, UniProt Q969N4); details: TAAR8; C21 5 µM
T19 construct: expressed in transfected cells; host or cells: HTLA cells, transient

[27] = biological target: T20, 318 nonolfactory human GPCRs (Homo sapiens, UniProt Q96LB2); details: MRGPRX1; C21 5 µM
T20 construct: expressed in transfected cells; host or cells: HTLA cells, transient

[28] = biological target: 318 nonolfactory human GPCRs (Homo sapiens, UniProt Q99500); details: S1PR3; C21 5 µM
[29] = biological target: T21, 318 nonolfactory human GPCRs (Homo sapiens, UniProt Q9BPV8); details: P2RY13; C21 5 µM
T21 construct: expressed in transfected cells; host or cells: HTLA cells, transient

[30] = biological target: T22, 318 nonolfactory human GPCRs (Homo sapiens, UniProt Q9BY21); details: GPR87; C21 5 µM
T22 construct: expressed in transfected cells; host or cells: HTLA cells, transient

[31] = biological target: T23, 318 nonolfactory human GPCRs (Homo sapiens, UniProt Q9BZJ6); details: GPR63; C21 5 µM
T23 construct: expressed in transfected cells; host or cells: HTLA cells, transient

[32] = biological target: T24, 318 nonolfactory human GPCRs (Homo sapiens, UniProt Q9H1Y3); details: OPN3; C21 5 µM
T24 construct: expressed in transfected cells; host or cells: HTLA cells, transient

[33] = biological target: T25, 318 nonolfactory human GPCRs (Homo sapiens, UniProt Q9HBW9); details: ELTD1; C21 5 µM
T25 construct: expressed in transfected cells; host or cells: HTLA cells, transient

[34] = biological target: T26, 318 nonolfactory human GPCRs (Homo sapiens, UniProt Q9UKP6); details: UTS2R; C21 5 µM
T26 construct: expressed in transfected cells; host or cells: HTLA cells, transient
T26 sequence (Q9UKP6 whole entry): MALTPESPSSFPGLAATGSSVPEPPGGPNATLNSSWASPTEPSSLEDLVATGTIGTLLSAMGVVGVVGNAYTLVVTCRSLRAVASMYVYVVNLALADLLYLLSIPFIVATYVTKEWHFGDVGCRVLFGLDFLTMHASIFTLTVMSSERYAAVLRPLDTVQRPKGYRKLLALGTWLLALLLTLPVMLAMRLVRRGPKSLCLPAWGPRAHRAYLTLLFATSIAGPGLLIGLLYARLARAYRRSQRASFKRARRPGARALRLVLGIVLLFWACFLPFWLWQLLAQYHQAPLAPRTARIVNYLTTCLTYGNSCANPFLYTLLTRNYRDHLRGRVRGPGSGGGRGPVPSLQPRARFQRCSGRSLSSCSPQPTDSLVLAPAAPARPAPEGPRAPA

T23 sequence (Q9BZJ6 whole entry): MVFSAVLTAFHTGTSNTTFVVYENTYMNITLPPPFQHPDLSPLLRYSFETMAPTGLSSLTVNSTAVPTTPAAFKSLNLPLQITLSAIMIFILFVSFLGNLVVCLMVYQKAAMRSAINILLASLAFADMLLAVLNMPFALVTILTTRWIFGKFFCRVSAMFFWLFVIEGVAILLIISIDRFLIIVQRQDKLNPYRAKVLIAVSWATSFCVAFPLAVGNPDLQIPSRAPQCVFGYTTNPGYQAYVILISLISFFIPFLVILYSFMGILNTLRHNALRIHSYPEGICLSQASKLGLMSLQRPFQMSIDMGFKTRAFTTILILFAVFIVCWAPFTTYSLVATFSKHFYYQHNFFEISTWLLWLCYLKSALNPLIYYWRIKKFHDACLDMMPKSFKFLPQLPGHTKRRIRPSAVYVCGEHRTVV
T6 sequence (P34995 whole entry): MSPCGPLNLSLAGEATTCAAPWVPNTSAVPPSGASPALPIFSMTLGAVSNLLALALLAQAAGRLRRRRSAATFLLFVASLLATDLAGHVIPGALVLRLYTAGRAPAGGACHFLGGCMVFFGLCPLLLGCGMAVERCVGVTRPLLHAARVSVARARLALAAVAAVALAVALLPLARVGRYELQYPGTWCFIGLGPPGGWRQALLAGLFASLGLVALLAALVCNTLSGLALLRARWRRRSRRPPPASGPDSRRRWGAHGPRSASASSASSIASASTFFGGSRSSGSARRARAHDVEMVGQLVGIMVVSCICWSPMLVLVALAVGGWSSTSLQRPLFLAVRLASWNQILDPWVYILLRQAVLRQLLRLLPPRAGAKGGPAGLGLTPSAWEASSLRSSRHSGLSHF
T11 sequence (Q14330 whole entry): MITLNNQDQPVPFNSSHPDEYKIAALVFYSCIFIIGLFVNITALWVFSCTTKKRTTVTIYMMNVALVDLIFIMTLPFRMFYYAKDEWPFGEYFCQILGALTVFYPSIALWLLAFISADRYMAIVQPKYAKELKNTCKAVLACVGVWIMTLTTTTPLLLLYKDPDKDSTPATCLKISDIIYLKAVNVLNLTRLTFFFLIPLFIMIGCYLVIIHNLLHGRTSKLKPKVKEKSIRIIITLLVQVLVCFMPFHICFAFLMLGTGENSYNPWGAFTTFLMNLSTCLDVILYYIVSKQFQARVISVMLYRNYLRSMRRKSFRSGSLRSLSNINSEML
T22 sequence (Q9BY21 whole entry): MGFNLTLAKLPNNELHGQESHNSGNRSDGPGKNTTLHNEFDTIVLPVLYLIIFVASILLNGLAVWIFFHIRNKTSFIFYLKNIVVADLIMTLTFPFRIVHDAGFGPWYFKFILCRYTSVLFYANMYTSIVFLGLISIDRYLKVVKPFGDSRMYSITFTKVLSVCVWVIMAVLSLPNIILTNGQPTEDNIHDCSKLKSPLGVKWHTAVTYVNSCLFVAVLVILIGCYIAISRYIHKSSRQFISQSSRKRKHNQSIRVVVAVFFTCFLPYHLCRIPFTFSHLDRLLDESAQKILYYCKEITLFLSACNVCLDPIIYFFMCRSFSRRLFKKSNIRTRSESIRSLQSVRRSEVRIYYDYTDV
T5 sequence (P32241 31-457): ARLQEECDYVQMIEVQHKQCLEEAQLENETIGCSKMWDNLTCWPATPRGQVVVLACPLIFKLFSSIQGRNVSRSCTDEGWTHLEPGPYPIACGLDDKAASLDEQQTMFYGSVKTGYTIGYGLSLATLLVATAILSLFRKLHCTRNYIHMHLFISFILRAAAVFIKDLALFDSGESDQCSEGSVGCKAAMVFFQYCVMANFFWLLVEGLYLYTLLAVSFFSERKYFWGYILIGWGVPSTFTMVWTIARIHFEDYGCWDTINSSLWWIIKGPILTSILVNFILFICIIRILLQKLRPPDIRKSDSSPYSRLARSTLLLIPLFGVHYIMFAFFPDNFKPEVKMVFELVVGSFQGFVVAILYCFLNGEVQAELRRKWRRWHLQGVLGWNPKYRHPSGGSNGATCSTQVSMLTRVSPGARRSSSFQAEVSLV
T7 sequence (P43115 whole entry): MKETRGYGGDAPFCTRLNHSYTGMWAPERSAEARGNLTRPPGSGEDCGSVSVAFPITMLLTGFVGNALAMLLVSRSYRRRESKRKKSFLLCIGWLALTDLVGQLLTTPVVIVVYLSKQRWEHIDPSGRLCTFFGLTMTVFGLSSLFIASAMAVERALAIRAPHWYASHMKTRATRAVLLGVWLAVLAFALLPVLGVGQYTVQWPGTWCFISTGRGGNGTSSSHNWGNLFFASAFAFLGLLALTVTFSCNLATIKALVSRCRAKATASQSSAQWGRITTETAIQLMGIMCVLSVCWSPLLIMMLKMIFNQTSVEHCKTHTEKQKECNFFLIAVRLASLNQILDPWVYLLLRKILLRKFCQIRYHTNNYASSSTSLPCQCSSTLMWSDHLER
T4 sequence (P30559 whole entry): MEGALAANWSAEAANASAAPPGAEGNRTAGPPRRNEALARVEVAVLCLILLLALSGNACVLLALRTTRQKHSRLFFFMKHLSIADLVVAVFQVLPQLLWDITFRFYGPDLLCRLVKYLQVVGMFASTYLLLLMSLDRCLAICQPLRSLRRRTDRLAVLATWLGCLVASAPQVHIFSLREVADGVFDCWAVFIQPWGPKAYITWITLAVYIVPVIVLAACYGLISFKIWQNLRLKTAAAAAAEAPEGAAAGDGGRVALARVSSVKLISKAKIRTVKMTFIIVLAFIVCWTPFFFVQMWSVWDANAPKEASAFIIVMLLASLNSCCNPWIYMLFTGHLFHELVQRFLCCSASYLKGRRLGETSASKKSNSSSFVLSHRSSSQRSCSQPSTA
T9 sequence (P49238 whole entry): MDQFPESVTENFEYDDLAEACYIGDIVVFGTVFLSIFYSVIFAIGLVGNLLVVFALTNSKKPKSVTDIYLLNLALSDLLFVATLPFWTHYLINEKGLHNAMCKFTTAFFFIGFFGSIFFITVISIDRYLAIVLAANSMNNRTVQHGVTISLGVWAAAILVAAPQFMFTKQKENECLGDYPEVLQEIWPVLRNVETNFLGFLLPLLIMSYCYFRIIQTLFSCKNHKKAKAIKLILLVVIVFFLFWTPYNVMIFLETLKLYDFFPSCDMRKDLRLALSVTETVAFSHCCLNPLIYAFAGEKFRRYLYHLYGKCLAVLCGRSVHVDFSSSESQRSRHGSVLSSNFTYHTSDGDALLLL
T21 sequence (Q9BPV8 whole entry): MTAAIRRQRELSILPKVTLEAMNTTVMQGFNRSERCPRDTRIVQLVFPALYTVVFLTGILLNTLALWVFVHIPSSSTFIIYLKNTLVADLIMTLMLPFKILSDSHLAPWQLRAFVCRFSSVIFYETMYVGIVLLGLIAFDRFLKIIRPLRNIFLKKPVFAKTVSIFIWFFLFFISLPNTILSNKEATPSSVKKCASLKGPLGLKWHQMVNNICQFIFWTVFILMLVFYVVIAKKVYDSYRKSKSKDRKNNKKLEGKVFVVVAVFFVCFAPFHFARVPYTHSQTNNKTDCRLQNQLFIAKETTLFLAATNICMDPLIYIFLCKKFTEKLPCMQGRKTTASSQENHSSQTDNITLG
T16 sequence (Q8NFJ6 whole entry): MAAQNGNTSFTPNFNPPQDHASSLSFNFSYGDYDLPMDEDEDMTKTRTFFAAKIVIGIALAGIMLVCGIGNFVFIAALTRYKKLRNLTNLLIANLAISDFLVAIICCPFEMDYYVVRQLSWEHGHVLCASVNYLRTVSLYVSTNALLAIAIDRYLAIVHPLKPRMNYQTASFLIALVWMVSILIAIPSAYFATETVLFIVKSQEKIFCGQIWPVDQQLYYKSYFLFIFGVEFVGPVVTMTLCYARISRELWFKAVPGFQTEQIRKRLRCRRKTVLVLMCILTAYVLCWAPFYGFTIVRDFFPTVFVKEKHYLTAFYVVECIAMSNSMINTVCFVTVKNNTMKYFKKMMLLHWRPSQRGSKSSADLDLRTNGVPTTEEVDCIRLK
Chain of 318 nonolfactory human GPCRs (Homo sapiens, UniProt P30872) (P30872 whole entry): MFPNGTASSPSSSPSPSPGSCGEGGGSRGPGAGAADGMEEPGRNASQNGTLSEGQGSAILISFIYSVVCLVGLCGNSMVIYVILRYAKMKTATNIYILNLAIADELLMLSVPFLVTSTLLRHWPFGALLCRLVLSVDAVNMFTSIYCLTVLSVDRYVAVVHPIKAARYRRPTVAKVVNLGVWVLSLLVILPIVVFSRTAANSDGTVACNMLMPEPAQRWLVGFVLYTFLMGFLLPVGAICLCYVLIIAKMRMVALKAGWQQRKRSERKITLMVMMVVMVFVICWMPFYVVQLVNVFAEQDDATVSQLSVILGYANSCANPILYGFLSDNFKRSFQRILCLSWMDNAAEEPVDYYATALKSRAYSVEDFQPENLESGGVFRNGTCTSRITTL
T17 sequence (Q8TDS7 whole entry): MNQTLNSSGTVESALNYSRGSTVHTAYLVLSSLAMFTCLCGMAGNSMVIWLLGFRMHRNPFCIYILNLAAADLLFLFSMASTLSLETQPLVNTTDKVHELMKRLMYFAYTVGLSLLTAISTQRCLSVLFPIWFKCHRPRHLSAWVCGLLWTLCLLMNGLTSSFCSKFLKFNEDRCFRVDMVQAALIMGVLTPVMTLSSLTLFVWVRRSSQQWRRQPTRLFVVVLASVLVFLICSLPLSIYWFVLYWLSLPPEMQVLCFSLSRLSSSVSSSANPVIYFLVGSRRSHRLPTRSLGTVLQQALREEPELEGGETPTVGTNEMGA

Compound: c1ccc2c(c1)N=C(N1CCNCC1)c1ccccc1N2 [C21, 11-(1-piperazinyl)-5H-dibenzo[b,e][1,4]diazepine]
- FOLD OVER BASAL [1]: 0.7 fold and 0.8 fold
- FOLD OVER BASAL [2]: 0.8 fold and 0.7 fold
- FOLD OVER BASAL [3]: 1 fold and 0.9 fold and 1.1 fold
- FOLD OVER BASAL [4]: 1.2 fold and 0.8 fold and 0.6 fold and 0.7 fold
- FOLD OVER BASAL [5]: 1.1 fold and 1.2 fold
- FOLD OVER BASAL [6]: 0.8 fold and 0.5 fold and 1 fold
- FOLD OVER BASAL [7]: 1 fold and 0.6 fold and 0.8 fold
- FOLD OVER BASAL [8]: 1.2 fold and 0.8 fold and 0.7 fold
- FOLD OVER BASAL [9]: 0.6 fold and 0.9 fold and 0.8 fold
- FOLD OVER BASAL [10]: 0.9 fold and 1 fold and 1.6 fold and 0.8 fold
- FOLD OVER BASAL [11]: 3.6 fold and 4.2 fold and 3.3 fold and 5.4 fold
- FOLD OVER BASAL [12]: 0.7 fold and 1 fold and 0.5 fold and 0.9 fold
- FOLD OVER BASAL [13]: 0.6 fold and 0.3 fold
- FOLD OVER BASAL [14]: 0.9 fold and 1 fold
- FOLD OVER BASAL [15]: 0.6 fold and 1.1 fold and 0.8 fold
- FOLD OVER BASAL [16]: 1.3 fold and 1 fold and 0.9 fold
- FOLD OVER BASAL [17]: 0.8 fold and 1.1 fold and 0.7 fold
- FOLD OVER BASAL [18]: 0.3 fold and 0.6 fold and 0.5 fold and 0.4 fold
- FOLD OVER BASAL [19]: 1.4 fold and 0.8 fold and 1.3 fold
- FOLD OVER BASAL [20]: 0.3 fold and 0.4 fold
- FOLD OVER BASAL [21]: 0.5 fold and 0.8 fold and 1 fold and 0.9 fold
- FOLD OVER BASAL [22]: 0.8 fold and 0.5 fold
- FOLD OVER BASAL [23]: 0.9 fold and 1 fold and 1.1 fold and 1.3 fold
- FOLD OVER BASAL [24]: 0.7 fold and 0.9 fold and 0.6 fold
- FOLD OVER BASAL [25]: 0.6 fold and 0.5 fold
- FOLD OVER BASAL [26]: 0.5 fold and 0.8 fold
- FOLD OVER BASAL [27]: 0.6 fold and 1.2 fold
- FOLD OVER BASAL [28]: 0.9 fold and 0.8 fold and 1 fold
- FOLD OVER BASAL [29]: 0.8 fold and 1 fold and 1.2 fold
- FOLD OVER BASAL [30]: 0.9 fold and 0.8 fold and 1 fold
- FOLD OVER BASAL [31]: 0.6 fold and 0.5 fold and 0.9 fold
- FOLD OVER BASAL [32]: 1.1 fold and 0.7 fold and 0.9 fold and 0.6 fold
- FOLD OVER BASAL [33]: 0.6 fold and 0.8 fold and 1 fold and 0.7 fold
- FOLD OVER BASAL [34]: 0.8 fold and 0.9 fold and 1 fold
